Reference: US20240208988A1, “Alstonine Derivatives and Salts Thereof” (priority 2021, published 2024)
Entries after “also recorded” stand apart in the source; their conditions may differ. Where a name gives a salt, the structure may show the parent alone.

Tests used:
Zebrafish (Danio rerio) [1] = experiment: Social interaction test in zebrafish exposed to MK-801; assay type: in vivo; conditions: for Social Interaction Test: Time immobile: 20 min drug pre-exposure, then 20 min MK-801 5 μM or water; for total distance traveled in the social interaction test / time spent in the interaction zone (social interaction), effect of the substance itself: main effect; for total distance traveled in the social interaction test: FIG. 3; for time spent in the interaction zone (social interaction), effect of the substance itself: two-way ANOVA, Bonferroni post hoc; for number of crossings in the social interaction test: main or interaction effect with MK-801, FIG. 4; for pre-exposure concentration at which MK-801 increased the number of crossings (Bonferroni post hoc): social interaction test, FIG. 4
Procedure: (§1) Here, the ability of alstonine salts to reverse schizophrenia-like symptoms produced by MK-801 in zebrafish was evaluated. The atypical antipsychotic olanzapine was used as a comparison.
(§2) Experiments were performed using male and female (50:50 ratio) short-fin wild-type zebrafish (4-month-old, 300-500 mg). Adult animals were obtained from a local commercial supplier (Delphis, RS, Brazil). The animals were maintained at Instituto de Ciências Básicas de Saúde in a light/dark cycle of 14/10 h with lights on at 7:00 a.m. for at least two weeks before tests. Fish were kept in 40-L (30×46×33 cm) unenriched glass tanks with non-chlorinated water at a maximum density of five animals per liter. Tank water satisfied the controlled conditions required for zebrafish (26±2° C.; pH 7.0±0.3; dissolved oxygen at 7.0±0.4 mg/L; total ammonia at <0.01 mg/L; total hardness at 5.8 mg/L; alkalinity at 22 mg/L CaCO3; conductivity of 1,500-1,600 μS/cm) and was constantly filtered by mechanical, biological, and chemical filtration systems. Food was provided twice a day as commercial flake food (Poytara®, SP, Brazil) plus brine shrimp (Artemia salina). The sex of the animals was confirmed after euthanasia by dissecting and analyzing the gonads. For all experiments, no sex effects were observed, so data was pooled together. Animals were euthanized by hypothermic shock according to the AVMA Guidelines for the Euthanasia of Animals (Leary and Johnson, 2020).
(§3) Olanzapine and MK-801 (dizocilpine) were purchased from Sigma-Aldrich (St. Louis, MO, USA). Alstonine hydrochloride and alstonine hydrobromide were prepared as described herein. MK-801 and either olanzapine or alstonine salt were dissolved in distilled water; alstonine salt stock solutions were sonicated in an ultrasonic bath. MK-801 solutions were freshly prepared, while alstonine salt stock solutions were kept refrigerated for up to five days. Exposure solutions were renovated halfway through the experiment, with a maximum of four fish exposed to the same solution.
(§4) Different sets of animals were used for each experiment, totaling 240 zebrafish in the study (plus 80 zebrafish serving as stimulus animals). Animals were individually exposed to water, olanzapine, or alstonine salt solutions at 2.5, 5, or 10 mg/L in 500-mL beakers containing 200-mL solution for 20 min. These concentrations were extrapolated from mice studies. Fish were then transferred to another beaker containing either water or MK-801 at 5 μM and remained there for another 20 minutes.
The protocol for the social interaction test in zebrafish followed the method described by Benvenutti et al. (2021) Journal of Neuroscience Research 00: 1-16. After exposure, animals were placed for 7 min in a tank (30×10×15 cm) flanked by two identical tanks (15×10×13 cm) either empty (neutral stimulus) or containing 10 unknown zebrafish (social stimulus). All three tanks were filled with water in standard conditions at a level of 10 cm. The position of the social stimulus (right or left) was counterbalanced throughout the tests. The water in the test tanks was changed between every animal. To assess social behavior, the test apparatus was virtually divided into three vertical zones (interaction, middle, and neutral). Animals were habituated to the apparatus for 2 min and then analyzed for the last 5 min. Videos were recorded from the front view and time spent in the interaction zone was quantified as a proxy for social interaction. Additionally, total distance traveled, number of crossings between the vertical zones of the tank and immobility time were quantified as secondary locomotor parameters. All outcomes were automatically scored using ANY-Maze software (Stoelting Co., Wood Dale, IL, USA).
GraphPad Prism 8 (version 8.4.3) for macOS was used to run the statistical analyses and plot the results. No animals were excluded, except for two data points in the open tank test due to a failure in video acquisition. […]

Zebrafish (Danio rerio) [2] = experiment: Open tank test in zebrafish exposed to MK-801; assay type: in vivo; conditions: for total distance in the open tank test: FIG. 7; for absolute turn angle in the open tank test: FIG. 8; for number of clockwise rotations in the open tank test: FIG. 9; for time spent immobile in the open tank test: for pretreatments: effect on the MK-801-induced increase, FIG. 10; for Open Tank Test: Absolute turn angle / Open Tank Test: Time immobile / Open Tank Test: Clockwise rotations / Open Tank Test: Total distance: immediately after social interaction test, 10 min; for Open Tank Test: Clockwise rotations / Open Tank Test: Total distance: bracket = kind of effect and concentration (mg/L)
Procedure: as §1, §2, §3, §4
The protocol for the open tank test followed the method described by Benvenutti et al. (2021) Journal of Neuroscience Research 00: 1-16. Immediately after the social interaction test, animals were placed in the center of the open tank arena and recorded for 10 min. The apparatus consisted of a white circular arena (24 cm in diameter and 8 cm in height, 2 cm water level). The apparatus format and the acquisition of videos from the top view allows the evaluation of locomotor parameters related to stereotypic behavior (circular movements and absolute turn angle). The water was changed between every animal. The following outcomes were automatically scored using ANY-Maze software (Stoelting Co., Wood Dale, IL, USA): total distance traveled, absolute turn angle, number of clockwise rotations, and immobility time.
GraphPad Prism 8 (version 8.4.3) for macOS was used to run the statistical analyses and plot the results. No animals were excluded, except for two data points in the open tank test due to a failure in video acquisition. Data were analyzed by two-way ANOVA, with alstonine salt or olanzapine pretreatment (Drug_1) and MK-801 treatment (Drug_2) as the main factors. Bonferroni post hoc test was applied as appropriate. The significant level was set at p<0.05. Data were expressed as mean standard deviation.

rodents = conditions: acute administration; literature data; cited from earlier work
mice = conditions: cited from earlier work
[3] = tested on: D1, D2, and 5-HT2A receptors; conditions: cortex membranes; preliminary binding studies (Costa-Campos et al., 1998); cited from earlier work
dopamine (DA) uptake = conditions: mouse striatal synaptosomes (Linck et al. 2015); cited from earlier work

Row | SMILES | Social Interaction Test: Time immobile (Zebrafish (Danio rerio) [1]) | total distance traveled in the social interaction test (Zebrafish (Danio rerio) [1]) | number of crossings in the social interaction test (Zebrafish (Danio rerio) [1]) | pre-exposure concentration at which MK-801 increased the number of crossings (Bonferroni post hoc) (Zebrafish (Danio rerio) [1]) [mg/L] | total distance in the open tank test (Zebrafish (Danio rerio) [2]) | absolute turn angle in the open tank test (Zebrafish (Danio rerio) [2]) | number of clockwise rotations in the open tank test (Zebrafish (Danio rerio) [2]) | time spent immobile in the open tank test (Zebrafish (Danio rerio) [2]) | Open Tank Test: Absolute turn angle (Zebrafish (Danio rerio) [2]) | Open Tank Test: Time immobile (Zebrafish (Danio rerio) [2]) | Open Tank Test: Clockwise rotations (Zebrafish (Danio rerio) [2]) | Open Tank Test: Total distance (Zebrafish (Danio rerio) [2]) | other results
1 | COC(=O)C1=CO[C@@H](C)[C@@H]2Cn3ccc4c5ccccc5nc-4c3C[C@H]12 [alstonine hydrochloride] | N.E.^1 | had no such effect | significant interaction | 5 | did not have an effect | no main effects for Drug_1 or interaction effects were observed | did not have a main effect or an interaction effect | did not have an effect | N.E.^1 | N.E.^1 | N.E.^1 | N.E.^1 | time spent in the interaction zone (social interaction), effect of the substance itself (Zebrafish (Danio rerio) [1]; FIG. 2, hydrochloride): animals exposed to 5 and 10 mg/L alstonine hydrochloride spent less time in the interaction zone as compared to controls; also recorded: decreased the interaction time
2 | CCN1CCCC1CNC(=O)c1cc(S(N)(=O)=O)ccc1OC (stereo not shown) [Sulpiride] | – | – | – | – | – | – | – | – | – | – | – | – | prevention of social interaction deficits caused by MK-801 (rodents): acutely prevents the deficits caused by MK-801
3 | COC(=O)C1=CO[C@@H](C)[C@@H]2Cn3ccc4c5ccccc5nc-4c3C[C@H]12 [alstonine] | – | – | – | – | – | – | – | – | – | – | – | – | antipsychotic profile in mice models (mice; 0.5-1.0 mg/kg ip): antipsychotic properties; time to significant effects after intraperitoneal administration (mice; mice, ip): ≤ 30 min; effect on [3H]SCH23390 or [3H]Spiperone binding [3]: does not affect; effect on DA uptake (dopamine (DA) uptake): increasing DA uptake
4 | COC(=O)C1=CO[C@@H](C)[C@H]2C[n+]3ccc4c([nH]c5ccccc54)c3C[C@H]12.[Br-] [alstonine hydrobromide] | – | had no such effect | significant interaction | 10 | did not have an effect | no main effects for Drug_1 or interaction effects were observed | did not have a main effect or an interaction effect | did not have an effect | N.E.^1 | N.E.^1 | N.E.^1 | N.E.^1 | time spent immobile in the social interaction test (Zebrafish (Danio rerio) [1]; FIG. 5, hydrobromide): significant interaction; time spent immobile in the social interaction test (Zebrafish (Danio rerio) [1]; FIG. 5, listed as alstonine bromide, hydrobromide): reduced the effects of MK-801 at the highest concentrations tested; time spent in the interaction zone (social interaction), effect of the substance itself (Zebrafish (Danio rerio) [1]; FIG. 2, listed as alstonine bromide, hydrobromide): none of the concentrations decreased social isolation; also recorded: did not; prevention of the MK-801-induced decrease of social interaction time (Zebrafish (Danio rerio) [1]; pretreatment 20 min before MK-801 5 μM, FIG. 2): did not prevent the effects of MK-801
5 | C[C@]12N[C@H](Cc3ccccc31)c1ccccc12 [MK-801, dizocilpine, reference compound] | = | increased the total distance traveled relative to controls | had no effect on the number of crossings | – | decreased the total distance relative to controls | decreased the absolute turn angle relative to controls | decreased the number of clockwise rotations relative to controls | increased the time spent immobile | ↓ | ↑ | ↓ | ↓ | Social Interaction Test: Crossings (Zebrafish (Danio rerio) [1]; Ctrl vs. MK within pretreatment level, bracket = concentration (mg/L)): =; time spent immobile in the social interaction test (Zebrafish (Danio rerio) [1]; FIG. 5): tended to decrease the time spent immobile; time spent in the interaction zone (social interaction), effect of the substance itself (Zebrafish (Danio rerio) [1]; FIG. 2): decreased social preference
6 | Cc1cc2c(s1)Nc1ccccc1N=C2N1CCN(C)CC1 [olanzapine, reference compound] | N.E.^1 | – | – | – | – | – | – | – | N.E.^1 | – | – | – | –
